Among the data in patent US20160151337A1, “ANNELATED PYRROLES AND THEIR USE AS CRAC INHIBITORS” (Grünenthal GmbH, priority 2013, published 2016) are IC50 and inhibition values, retold here.

Experiment [1] relates to Interleukin-2 (IL-2) production/release in Jurkat T cells. Description: Jurkat IL-2 Production Assay (PHA-stimulated, IL-2 AlphaLisa). It counts as cell-based. As to conditions: Homo sapiens, PHA 15 μg/ml, 22 h, inhibition of IL-2 production. How it is done: The effect of compounds of the invention on Interleukin-2 (IL-2) production/release was tested in the Jurkat T cell line (ECACC) clone E6-1.
Jurkat T cells were cultured in DMEM/F12/Glutamax (Gibco) containing 10% FCS (Gibco), and maintained at 37° C., 5% CO2. Cells were split twice a week [5*10^6 (Mon-Thu) and 1*10^7 (Thu-Mon) cells/50 ml medium in 1-175 ZK culture flasks, respectively].
Prior to experiment, cells were seeded on 96 well plates (Cellstar 96 Well; Cat No. 655180, Greiner bio-one) at a density of 5*10^5 cells/well in DMEM/F12/Glutamax (Gibco) containing 10% FCS (Gibco), and incubated for 60 min at 37° C., 5% CO2. Subsequently, compounds were added and cells were allowed to incubate for 30 min at 37° C., 5% CO2. Cells were then stimulated with 15 μg/ml Phyto-hemagglutinin (PHA; Sigma) for 22 hours at 37° C., 5% CO2.
Before sampling of the supernatants, cells were spun down (200*g/5 min/RT). The amount of IL-2 released into the supernatant was quantified with the human IL-2 AlphaLisa kit (Perkin Elmer) according to manufacturer's instructions. Luminescence proximity measurements were carried out in the Synergy H4 reader (BioTek) employing the fluorescence setting of the reader (ex: 680/30 nm; em: 620/40 nm).
Inhibition of IL-2 production/release in/from Jurkat T cells was quantified as follows: Zero percent inhibition (MAX) was defined as the [IL-2] determined in supernatants derived from cells to which PHA & DMSO-only had been added instead of compound. Hundred percent inhibition (MIN) was defined as the [IL-2] determined in supernatants derived from cells that had been pre-treated with 1 μM CyclosporineA (Sigma) before the addition of 15 μg/ml PHA.
For routine IC50 determinations of compounds, 8 concentrations of a serial dilution (1:3.16) were tested, starting off from 10 μM.
(In general: Bead proximity is the source of the signal in Alpha formats.)

For experiment [2], the target named is T1, CRAC channel (Homo sapiens, UniProt Q96D31).
T1 construct: endogenous in cells; host or cells: HEK293 (ECACC), untransfected
T1 sequence (Q96D31 whole entry): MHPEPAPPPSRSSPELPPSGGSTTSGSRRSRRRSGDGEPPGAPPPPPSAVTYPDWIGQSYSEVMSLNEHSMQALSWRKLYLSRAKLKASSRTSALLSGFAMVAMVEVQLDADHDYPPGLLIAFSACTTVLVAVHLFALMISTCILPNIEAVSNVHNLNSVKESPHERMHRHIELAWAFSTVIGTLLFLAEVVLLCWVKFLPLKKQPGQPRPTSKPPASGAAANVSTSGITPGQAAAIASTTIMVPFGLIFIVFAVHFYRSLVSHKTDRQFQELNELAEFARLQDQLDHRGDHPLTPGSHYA
Description: HEK Calcium Influx Assay (FLIPR), inhibition of store-operated Ca2+ entry after thapsigargin store depletion. It counts as cell-based. As to conditions: 10 μM compound, HEK293 cells, read-out: % inhib. [@ 10 μM] FLIPR. How it is done:
The effect of compounds of the invention on intracellular [Ca^2+] was tested in the HEK293 cell line (ECACC).
HEK293 cells were cultured in DMEM/F12/Glutamax (Gibco) containing 10% FCS (Gibco), and maintained at 37° C., 5% CO2. Cell were split twice a week [3*10^6 (Mon-Thu) and 1*10^6 (Thu-Mon) cells/50 ml medium in 1-175 ZK culture flasks, respectively]. Twenty four hours pre-experiment, cells were seeded on 96 well plates (Poly-D-Lysine 96 well Black/Clear Plate, BD Biocoat REF 356640) at a density of 40,000 cells/well in DMEM/F12 (Gibco) containing 10% FCS (Gibco), and maintained at 37° C., 5% CO2.
Prior to store-depletion, cell culture medium was removed and cells were loaded with the Calcium-sensitive fluorescent dye comprised within the Calcium-4-assay kit (Molecular Devices) in nominally Ca^2+-free HBS buffer (140 mM NaCl, 4 mM KCl, 0.2 mM MgCl2, 11 mM D-glucose, and 10 mM HEPES, pH 7.4) according to manufacturer's instruction for 60 min at 37° C., 5% CO2.
Passive depletion of intracellular Ca^2+-stores was then triggered by employing the SERCA inhibitor thapsigargin (2 μM final) for 10 min in the dark (RT). To prevent immediate Ca^2+-entry via the activated store-operated channels (SOCs), cells were maintained in Ca^2+-free HBS buffer comprising 100 μM EGTA during store-depletion.
Intracellular changes in [Ca^2+] were subsequently monitored with the FLIPR device (Molecular Devices). In brief, baseline imaging post-store depletion was allowed for 1 min before adjusting the extracellular buffer to 3 mM CaCl2. Increases in intracellular [Ca^2+] due to pre-activated SOC channels were monitored for 15 min until intracellular Ca^2+ levels had declined into a steady-state. Finally, compounds were administered, and Ca^2+ signals were recorded for additional 10 min.
Inhibition of endogenous SOC in HEK293 cells was quantified employing the average Ca^2+ signal measured from 9.5-10 min post-administration. Zero percent inhibition (MAX) was defined as the Ca^2+ signal recorded from wells to which DMSO-only had been added instead of compound. Hundred percent inhibition (MIN) was defined as the signal obtained from wells in which cells haven't been treated with TG prior to Ca^2+ addition and to which DMSO-only had been added instead of compound. For routine IC50 determinations of compounds, 8 concentrations of a serial dilution (1:3.16) were tested, starting off from 10 μM. Reliable IC50's could consequently be determined only, if they were at least sub 2.5-3 μM.

For orientation: IC50 means the point on the concentration scale where inhibition reaches its midpoint. For `COC(=O)c1ccc(N2CCc3[nH]c(-c4c(F)cccc4F)cc3C2)c(C)c1` [Example 13, 4-[2-(2,6-Difluoro-phenyl)-4,5,6,7-tetrahydro-1H-pyrrolo[3,2-c]pyridin-5-yl]-3-methyl-benzoic acid methyl ester], in experiment [1], the IC50 lay in the range of 0.5 to 1 µM. Also, the inhibition at 10 µM in experiment [2] was < 50%.
The like results for `Cc1cc(S(=O)(=O)N(C)C)ccc1N1CCc2[nH]c(-c3c(F)cccc3F)cc2C1` [Example 14, 4-[2-(2,6-Difluoro-phenyl)-4,5,6,7-tetrahydro-1H-pyrrolo[3,2-c]pyridin-5-yl]-N,N,3-trimethyl-benzenesulfonic acid amide] were, in that order, < 0.5 µM and < 50%.
The like results for `Cc1nc(Cl)ccc1N1CCc2[nH]c(-c3c(F)cccc3F)cc2C1` [Example 15, 5-(6-Chloro-2-methyl-pyridin-3-yl)-2-(2,6-difluoro-phenyl)-4,5,6,7-tetrahydro-1H-pyrrolo[3,2-c]pyridine] were, in that order, 1 to 5 µM and > 70%.
The like results for `Cc1cc(S(C)(=O)=O)ncc1N1CCc2[nH]c(-c3c(F)cccc3F)cc2C1` [Example 16, 2-(2,6-Difluoro-phenyl)-5-(4-methyl-6-methylsulfonyl-pyridin-3-yl)-4,5,6,7-tetrahydro-1H-pyrrolo[3,2-c]pyridine] were, in that order, < 0.5 µM and > 70%.
Turning to `Cc1nc(-c2cccnc2)sc1N1CCc2[nH]c(-c3c(F)cccc3F)cc2C1` [Example 18, 5-[2-(2,6-Difluoro-phenyl)-4,5,6,7-tetrahydro-1H-pyrrolo[3,2-c]pyridin-5-yl]-4-methyl-2-pyridin-3-yl-thiazole], the IC50 in experiment [1] was < 0.5 µM. Moreover, the inhibition at 10 µM in experiment [2] was > 70%.
The like results for `Cn1nc(C(F)(F)F)cc1N1CCc2[nH]c(-c3c(F)cccc3F)cc2C1` [Example 19, 2-(2,6-Difluoro-phenyl)-5-[2-methyl-5-(trifluoromethyl)-2H-pyrazol-3-yl]-4,5,6,7-tetrahydro-1H-pyrrolo[3,2-c]pyridine] were, in that order, < 0.5 µM and > 70%.
The like results for `Cc1cc2c(cc1N1CCc3[nH]c(-c4c(F)cccc4F)cc3C1)OC(F)(F)O2` [Example 20, 5-(2,2-Difluoro-6-methyl-1,3-benzodioxol-5-yl)-2-(2,6-difluoro-phenyl)-4,5,6,7-tetrahydro-1H-pyrrolo[3,2-c]pyridine] were, in that order, 1 to 5 µM and < 50%.
Taken in the same sequence, the figures for `COc1ccc(OC)c(N2CCc3[nH]c(-c4c(F)cccc4F)cc3C2)c1` [Example 21, 2-(2,6-Difluoro-phenyl)-5-(2,5-dimethoxyphenyl)-4,5,6,7-tetrahydro-1H-pyrrolo[3,2-c]pyridine] were 1 to 5 µM and > 70%.
Turning to `Cc1ccccc1N1CCc2[nH]c(-c3c(F)cccc3F)cc2C1` [Example 22, 2-(2,6-Difluoro-phenyl)-5-o-tolyl-4,5,6,7-tetrahydro-1H-pyrrolo[3,2-c]pyridine], the IC50 in experiment [1] lay within 1 to 5 µM. In addition, the inhibition at 10 µM in experiment [2] was > 70%.
The like results for `Cc1sc(-c2ccccc2)nc1N1CCc2[nH]c(-c3c(F)cccc3F)cc2C1` [Example 23, 4-[2-(2,6-Difluoro-phenyl)-4,5,6,7-tetrahydro-1H-pyrrolo[3,2-c]pyridin-5-yl]-5-methyl-2-phenyl-thaizole] were, in that order, 1 to 5 µM and < 50%.
For `Cc1sc(-c2ccncc2)nc1N1CCc2[nH]c(-c3c(F)cccc3F)cc2C1` [Example 24, 4-[2-(2,6-Difluoro-phenyl)-4,5,6,7-tetrahydro-1H-pyrrolo[3,2-c]pyridin-5-yl]-5-methyl-2-pyridin-4-yl-thiazole], the IC50 in experiment [1] is < 0.5 µM. In experiment [2], the inhibition at 10 µM is > 70%.
On to `Cc1nc(N2CCc3[nH]c(-c4c(F)cccc4F)cc3C2)ccc1Br` [Example 25, 5-(5-Bromo-6-methyl-pyridin-2-yl)-2-(2,6-difluoro-phenyl)-4,5,6,7-tetrahydro-1H-pyrrolo[3,2-c]pyridine], for which the IC50 in experiment [1] lay in the range of 1 to 5 µM. Moreover, in experiment [2], the inhibition at 10 µM was < 50%.
The like results for `Cc1sc(-c2cnccn2)nc1N1CCc2[nH]c(-c3c(F)cccc3F)cc2C1` [Example 26, 4-[2-(2,6-Difluoro-phenyl)-4,5,6,7-tetrahydro-1H-pyrrolo[3,2-c]pyridin-5-yl]-5-methyl-2-pyrazin-2-yl-thiazole] were, in that order, < 0.5 µM and > 70%.
Taken in the same sequence, the figures for `COc1cc(S(C)(=O)=O)ccc1N1CCc2[nH]c(-c3c(F)cccc3F)cc2C1` [Example 28, 2-(2,6-Difluoro-phenyl)-5-(2-methoxy-4-methylsulfonyl-phenyl)-4,5,6,7-tetrahydro-1H-pyrrolo[3,2-c]pyridine] were 0.5 to 1 µM and > 70%.
For the compound `Cc1sc(-c2cncnc2)nc1N1CCc2[nH]c(-c3c(F)cccc3F)cc2C1` [Example 30, 4-[2-(2,6-Difluoro-phenyl)-4,5,6,7-tetrahydro-1H-pyrrolo[3,2-c]pyridin-5-yl]-5-methyl-2-pyrimidin-5-yl-thiazole], the IC50 in experiment [1] lay in the range of 0.5 to 1 µM. Besides, the inhibition at 10 µM in experiment [2] is > 70%.
The like results for `CCc1sc(-c2cccnc2)nc1N1CCc2[nH]c(-c3c(F)cccc3F)cc2C1` [Example 31, 4-[2-(2,6-Difluoro-phenyl)-4,5,6,7-tetrahydro-1H-pyrrolo[3,2-c]pyridin-5-yl]-5-ethyl-2-pyridin-3-yl-thiazole] were, in that order, < 0.5 µM and < 50%.
The like results for `Cc1ccc(Cl)cc1N1CCc2[nH]c(-c3c(F)cccc3Cl)cc2C1` [Example 64, 2-(2-Chloro-6-fluoro-phenyl)-5-(5-chloro-2-methyl-phenyl)-4,5,6,7-tetrahydro-1H-pyrrolo[3,2-c]pyridine] were, in that order, 1 to 5 µM and < 50%.
Taken in the same sequence, the figures for `Cc1sc(-c2cccnc2)nc1N1CCc2[nH]c(-c3c(F)cccc3F)c(I)c2C1` [Example 66, 4-[2-(2,6-Difluoro-phenyl)-3-iodo-4,5,6,7-tetrahydro-1H-pyrrolo[3,2-c]pyridin-5-yl]-5-methyl-2-pyridin-3-yl-thiazole] were 1 to 5 µM and < 50%.
For the compound `Cc1cc(C#N)c(F)cc1N1CCc2[nH]c(-c3c(F)cccc3F)cc2C1` [Example 67, 4-[2-(2,6-Difluoro-phenyl)-4,5,6,7-tetrahydro-1H-pyrrolo[3,2-c]pyridin-5-yl]-2-fluoro-5-methyl-benzonitrile], in experiment [1], the IC50 was in the range of 0.5 to 1 µM. The inhibition at 10 µM in experiment [2] is < 50%.
Taken in the same sequence, the figures for `Cc1cc(C#N)cnc1N1CCc2[nH]c(-c3c(F)cccc3F)cc2C1` [Example 68, 6-[2-(2,6-Difluoro-phenyl)-4,5,6,7-tetrahydro-1H-pyrrolo[3,2-c]pyridin-5-yl]-5-methyl-nicotinonitrile] were < 0.5 µM and > 70%.
